The values below come from patent publication US20060293395A1, “Methods for treating a mammal before, during and after cardiac arrest” (priority 2004, published 2006).

In one assay the test system is rats. In words: Example 1: feasibility studies and dose titration of levosimendan. It counts as in vivo, rat.
For assay [1], the system named is male domestic pigs. In words: Example 3: dobutamine vs levosimendan in the porcine model of cardiac arrest and cardiac resuscitation. It counts as in vivo, pig. How it is done: Experimental Preparation: The experiments were performed in the porcine model of cardiac arrest and cardiac resuscitation which has been extensively exercised. (21,22). […] Anesthesia was initiated by intramuscular injection of ketamine (20 mg kg^−1) and was completed by ear vein injection of sodium pentobarbital (30 mg kg^−1). Additional 8 mg kg^−1 doses of sodium pentobarbital were injected to maintain anesthesia at intervals of one hour. A cuffed endotracheal tube was advanced into the trachea. Animals were mechanically ventilated with a volume of 15 mL kg^−1, peak airway flow of 40 L min^−1, and FiO2 of 0.2 with the aid of a volume-controlled ventilator (Model MA-1, Puritan-Bennett, Carlsbad, Calif.). End-tidal PCO2 (PETCO2) was monitored with an infrared analyzer (Model 01R-7101A, Nihon Kohden Corp, Tokyo, Japan). Respiratory frequency was adjusted to maintain PETCO2 between 35 and 40 mmHg. Blood temperature was maintained at 37±0.5° C. with the aid of infrared heating lamps, as required.
For the measurement of left ventricular functions, a 5.5/7.5 MHz biplane with pulse-wave Doppler transesophageal echocardiographic tranducer with 4-way flexure (Model 21363A, Hewlett-Packard Co. Medical Products Group, Andover, Mass.) was advanced from the incisor teeth into the esophagus for a distance of approximately 40 cm. For the measurement of aortic pressure, a fluid filled catheter was advanced from the surgically exposed left femoral artery into the thoracic aorta. For measurements of right atrial and pulmonary arterial pressures, blood temperature and cardiac output, a 7-French, pentalumen, thermodilution-tipped catheter was advanced from the surgically exposed left femoral vein and flow-directed into the pulmonary artery. For inducing VF, a 5-French pacing catheter (EP Techologies, Inc., Mountain View, Calif.) was advanced from the surgically exposed right cephalic vein into the right ventricle. […] This catheter was then looped laterally and advanced inferiorly for a distance of 5 cm into the great cardiac vein for sampling of coronary venous blood. The electrocardiographic (EKG) lead II was continuously recorded.
Experimental procedure: A total 15 animals were investigated. […] Cardiac arrest was induced with 1 to 2 mA AC delivered to the endocardium of the right ventricle. Mechanical ventilation was discontinued after onset of VF. At the end of a 7-minute interval of untreated VF, precordial compression (PC) was started with a pneumatic piston-driven chest compressor (Thumper, Model 1000, Michigan Instruments, Grand Rapids, Mich.). Coincident with the start of PC, the animal was mechanically ventilated with a tidal volume of […] and FiO2 of 1.0. […] The compression force was adjusted to decrease the anterior-posterior diameter of the chest by 25%. After 5 minutes of PC, defibrillation was attempted with a 150 J biphasic waveform shock delivered between the right infraclavicular area and the cardiac apex. If an organized cardiac rhythm with mean aortic pressure of more than 60 mm Hg persisted for an interval of 5 minutes or more, the animal was regarded as successfully resuscitated. At 10 minutes after restoration of spontaneous circulation (ROSC), one of the three interventions was begun. […] Levosimendan diluted in physiological salt solution was administered in a loading dose of 20 μg kg^−1, infused over 10 minutes, followed by infusion of 0.4 μg kg^−1 min^−1 also in physiologic salt solution for a total duration of 230 minutes.

In assay [2] the test system is male domestic pigs. The experiment in a line: Levosimendan on post-resuscitation myocardial function after beta-adrenergic blockade (propranolol). The assay is classed as in vivo, pig. To be noted: levosimendan added early postresuscitation after propranolol, in comparison with propranolol alone. How it is done: Anesthesia was initiated by intramuscular injection of ketamine (20 mg/kg) and completed by ear vein injection of sodium pentobarbital (30 mg/kg). Additional doses of sodium pentobarbital (8 mg/kg) were injected to maintain anesthesia at intervals of one hour. A cuffed endotracheal tube was advanced into the trachea. Animals were mechanically ventilated with a volume-controlled ventilator (Model MA-1, Puritan-Bennett, Carlsbad, Calif.) with a tidal volume of 15 mL/kg, peak flow of 40 L/min, and FiO2 of 0.21. End-tidal PCO2 (ETCO2) was monitored with an infrared analyzer (Model 01R-7101A, Nihon Kohden Corp, Tokyo, Japan). Respiratory frequency was adjusted to maintain PETCO2 between 35 and 40 mm Hg.
For the measurement of left ventricular functions, a 5.5/7.5 […] biplane with Doppler transesophageal echocardiographic transducer with 4-way flexure (Model 21363A, Hewlett-Packard Co., Medical Products Group, Andover, Mass.) was advanced from the incisor teeth into the esophagus for a distance of approximately 35 cm. For the measurement of aortic pressure, a fluid-filled catheter was advanced from the left femoral artery into the thoracic aorta. For the measurements of right atrial, pulmonary arterial pressures and blood temperature, a 7-French, pentalumen, thermodilution-tipped catheter was advanced from the left femoral vein and flow-directed into the pulmonary artery. A 7-French catheter was advanced from the left cephalic vein into the great cardiac vein for the measurement of great cardiac vein blood gases and lactate. For inducing VF, a 5-French pacing catheter (EP Technologies, Inc., Mountain View, Calif.) was advanced from the right cephalic vein into the right ventricle.
The investigators were blinded to the randomization. Cardiac arrest was induced with 1 to 2 mA AC delivered to the endocardium of the right ventricle. Mechanical ventilation was discontinued after onset of VF. At the end of the 7-min interval of untreated VF, precordial compression was started with a pneumatic piston-driven chest compressor (Thumper, Model 1000, Michigan Instruments, Grand Rapids, Mich.). […] The compression force was adjusted to decrease the anterior-posterior diameter of the chest by 25%. After 5 min of precordial compression, defibrillation was attempted with a 150 J biphasic waveform shock delivered between the right infraclavicular area and the cardiac apex. If an organized cardiac rhythm with mean aortic pressure of more than 60 mm Hg persisted for an interval of 5 min or more, the animal was regarded as successfully resuscitated. All animals had restoration of spontaneous circulation (ROSC) after electrical defibrillation, and were then randomized to three treatment groups: (1) propranolol (0.1 mg/kg bolus at 6 min of VF); (2) propranolol plus levosimendan (at 10 min after post resuscitation, 20 μg/kg over 10 min followed by 0.4 μg/kg/min for 220 min); and (3) equal volumes of saline as placebo.
Measurements were obtained over an interval of 4 hours following resuscitation. After 4 hours, animals were euthanized by intravenous injection of 150 mg kg^−1 pentobarbital. Autopsy was performed to document injuries to the bony thorax and the thoracic and abdominal viscera.

The mark [3] stands for this setting: 12 μg levosimendan followed by 0.3 μg/kg/min, comparable to 3 μg/kg/min dobutamine.
Where [4] appears, read: 4-hour interval after treatment.

For `C[C@@H]1CC(=O)NN=C1c1ccc(NN=C(C#N)C#N)cc1` [Levosimendan], the arterial pressure entry with rats (setting [3]) is given as “declines in arterial pressure”; in the assay on rats (higher doses of levosimendan) it was “decreases in arterial pressure”; with male domestic pigs [1] (between levosimendan and dobutamine), “no differences in arterial pressure”. Moreover, the figures for the cardiac output entry in the assay on rats (setting [3]), with rats (higher doses of levosimendan) and in the assay with male domestic pigs [1] (vs saline placebo (FIG. 16)) were “increases in cardiac output”, “additional increases in cardiac output” and “Significantly greater cardiac output”, respectively. Further, the heart rate result with rats (higher doses of levosimendan) was “increases in heart rate”; in the assay with male domestic pigs [1] (among the three groups), “did not differ”. The “mean pulmonary artery pressure” value in the assay on male domestic pigs [1] (setting [4]) is recorded as “Significantly lower”. Also, in the assay on male domestic pigs [1] (setting [4]), the “right atrial (filling) pressure” value was “Significantly lower”. Besides, the neurological alertness scores entry in the assay with male domestic pigs [1] (at 24 hours) is “significantly better”. The “coronary arterial-venous oxygen differences” value in the assay on male domestic pigs [1] (in comparison to dobutamine (FIG. 19)) is given as “numerically smaller”. The EF entry in the assay with male domestic pigs [1] (in comparison to dobutamine, persisted at 72 hours (FIG. 17)) was “significantly greater”; in the assay on male domestic pigs [2] it was “additional and significant increases”. In addition, the FAC result is “significantly greater” in the assay with male domestic pigs [1] (in comparison to dobutamine, persisted at 72 hours (FIG. 18)); “additional and significant increases” with male domestic pigs [2].
